Reference: patent US9908912B2, “Triclosan derivatives and uses thereof” (priority 2012, dated 2018)
Converted amounts (≈) assume the structure as drawn.

Key:
[1] = system: Crono. sakazakii ATCC 29544; test: MIC in Nutrient Broth No. 2; type: cell-based, Cronobacter sakazakii; conditions: Cronobacter sakazakii, ATCC29544; Nutrient Broth No. 2, 24 h, 37° C.; inducer not specified; read-out: MIC
Protocol: (§1) Bacteria species as indicated in Table 1 were incubated for approximately 24 hours at 37° C.
(§2) The tests were repeated with the addition of inducers. Methyl glycoside was the main inducer used, but other suitable inducers include isopropyl-β-D-thiogalactopyranoside, p-nitrophenyl-α-L-arabinopyranoside and p-nitrophenyl-β-D-xylopyranoside. Concentration of inducer in all cases was 100 μg/ml.

Ent. cloacae ATCC 13047 = test: MIC in Nutrient Broth No. 2; type: cell-based, Enterobacter cloacae; conditions: Enterobacter cloacae, ATCC13047; Nutrient Broth No. 2, 24 h, 37° C.; inducer not specified; read-out: MIC
Protocol: as §1, §2

E. hermanii ATCC 33650 = test: MIC in Nutrient Broth No. 2; type: cell-based, Escherichia hermanii; conditions: Atlantibacter hermannii, ATCC33650; Nutrient Broth No. 2, 24 h, 37° C.; inducer not specified; read-out: MIC
Protocol: as §1, §2

[2] = system: Kleb. aerogenes NCTC 88167; test: MIC in Nutrient Broth No. 2; type: cell-based, Klebsiella aerogenes; conditions: Klebsiella aerogenes, NCTC88167; Nutrient Broth No. 2, 24 h, 37° C.; inducer not specified; read-out: MIC
Protocol: as §1, §2

[3] = system: Kleb. pneumoniae ATCC 10031; test: MIC in Nutrient Broth No. 2; type: cell-based, Klebsiella pneumoniae; conditions: Klebsiella pneumoniae, ATCC10031; Nutrient Broth No. 2, 24 h, 37° C.; inducer not specified; read-out: MIC
Protocol: as §1, §2

[4] = system: Aeromonas hydrophila OCC 778; test: MIC in Nutrient Broth No. 2; type: cell-based; conditions: Aeromonas hydrophila, OCC778; Nutrient Broth No. 2, 24 h, 37° C.; inducer not specified; read-out: MIC
Protocol: as §1, §2

[5] = system: Bacillus cereus ATCC 14579; test: MIC in Nutrient Broth No. 2; type: cell-based; conditions: Bacillus cereus, ATCC14579; Nutrient Broth No. 2, 24 h, 37° C.; inducer not specified; read-out: MIC
Protocol: as §1, §2

[6] = system: Bacillus subtilis NCTC 10073; test: MIC in Nutrient Broth No. 2; type: cell-based; conditions: Bacillus subtilis, NCTC10073; Nutrient Broth No. 2, 24 h, 37° C.; inducer not specified; read-out: MIC
Protocol: as §1, §2

[7] = system: Citrobacter freundii OCC 851; test: MIC in Nutrient Broth No. 2; type: cell-based; conditions: Citrobacter freundii, OCC851; Nutrient Broth No. 2, 24 h, 37° C.; inducer not specified; read-out: MIC
Protocol: as §1, §2

[8] = system: Enterobacter aerogenes ATCC 13048; test: MIC in Nutrient Broth No. 2; type: cell-based; conditions: Klebsiella aerogenes, ATCC13048; Nutrient Broth No. 2, 24 h, 37° C.; inducer not specified; read-out: MIC
Protocol: as §1, §2

[9] = system: Enterococcus faecalis ATCC 29212; test: MIC in Nutrient Broth No. 2; type: cell-based; conditions: Enterococcus faecalis, ATCC29212, 24 h
Protocol: as §1, §2

[10] = system: Enterococcus faecium ATCC 19434; test: MIC in Nutrient Broth No. 2; type: cell-based; conditions: Enterococcus faecium, ATCC19434; Nutrient Broth No. 2, 24 h, 37° C.; inducer not specified; read-out: MIC
Protocol: as §1, §2

Escherichia coli = test: MIC in Nutrient Broth No. 2; type: cell-based; conditions: Escherichia coli; 8 strains; Nutrient Broth No. 2, 24 h, 37° C.; inducer not specified; read-out: MIC
Protocol: as §1, §2

Hafnia alvei ATCC 13337 = test: MIC in Nutrient Broth No. 2; type: cell-based; conditions: Hafnia alvei, ATCC13337; Nutrient Broth No. 2, 24 h, 37° C.; inducer not specified; read-out: MIC
Protocol: as §1, §2

[11] = system: Proteus mirabilis ATCC 12453; test: MIC in Nutrient Broth No. 2; type: cell-based; conditions: Proteus mirabilis, ATCC12453; Nutrient Broth No. 2, 24 h, 37° C.; inducer not specified; read-out: MIC
Protocol: as §1, §2

Proteus vulgaris OCC 195 = test: MIC in Nutrient Broth No. 2; type: cell-based; conditions: Proteus vulgaris, OCC195; Nutrient Broth No. 2, 24 h, 37° C.; inducer not specified; read-out: MIC
Protocol: as §1, §2

[12] = system: Ps. Aeruginosa ATCC 27853; test: MIC in Nutrient Broth No. 2; type: cell-based; conditions: Pseudomonas aeruginosa, ATCC27853; Nutrient Broth No. 2, 24 h, 37° C.; inducer not specified; read-out: MIC
Protocol: as §1, §2

Salmonella = test: MIC in Nutrient Broth No. 2; type: cell-based; conditions: Salmonella; 11 strains; Nutrient Broth No. 2, 24 h, 37° C.; inducer not specified; read-out: MIC
Protocol: as §1, §2

[13] = system: Serratia marcescens OCC 217; test: MIC in Nutrient Broth No. 2; type: cell-based; conditions: Serratia marcescens, OCC217; Nutrient Broth No. 2, 24 h, 37° C.; inducer not specified; read-out: MIC
Protocol: as §1, §2

Staph. aureus = test: MIC in Nutrient Broth No. 2; type: cell-based, Staphylococcus aureus; conditions: Staphylococcus aureus; 8 strains; Nutrient Broth No. 2, 24 h, 37° C.; inducer not specified; read-out: MIC
Protocol: as §1, §2

Staph. epidermidis = test: MIC in Nutrient Broth No. 2; type: cell-based, Staphylococcus epidermidis; conditions: Staphylococcus epidermidis; 3 strains; Nutrient Broth No. 2, 24 h, 37° C.; inducer not specified; read-out: MIC
Protocol: as §1, §2

[14] = system: Staph. haemolyticus OCC 2223; test: MIC in Nutrient Broth No. 2; type: cell-based, Staphylococcus haemolyticus; conditions: Staphylococcus haemolyticus, OCC2223; Nutrient Broth No. 2, 24 h, 37° C.; inducer not specified; read-out: MIC
Protocol: as §1, §2

[15] = system: Staph. saprophyticus ATCC 15305; test: MIC in Nutrient Broth No. 2; type: cell-based, Staphylococcus saprophyticus; conditions: Staphylococcus saprophyticus, ATCC15305; Nutrient Broth No. 2, 24 h, 37° C.; inducer not specified; read-out: MIC
Protocol: as §1, §2

[16] = system: Strep. agalactiae OCC 182; test: MIC in Nutrient Broth No. 2; type: cell-based, Streptococcus agalactiae; conditions: Streptococcus agalactiae, OCC182; Nutrient Broth No. 2, 24 h, 37° C.; inducer not specified; read-out: MIC
Protocol: as §1, §2

[17] = system: Strep. pneumoniae ATCC 6305; test: MIC in Nutrient Broth No. 2; type: cell-based, Streptococcus pneumoniae; conditions: Streptococcus pneumoniae, ATCC6305; Nutrient Broth No. 2, 24 h, 37° C.; inducer not specified; read-out: MIC
Protocol: as §1, §2

[18] = system: Strep. pyogenes ATCC 19615; test: MIC in Nutrient Broth No. 2; type: cell-based, Streptococcus pyogenes; conditions: Streptococcus pyogenes, ATCC19615; Nutrient Broth No. 2, 24 h, 37° C.; inducer not specified; read-out: MIC
Protocol: as §1, §2

Strep. viridans OCC 234 = test: MIC in Nutrient Broth No. 2; type: cell-based, Streptococcus viridans; conditions: Streptococcus viridans, OCC234; Nutrient Broth No. 2, 24 h, 37° C.; inducer not specified; read-out: MIC
Protocol: as §1, §2

[19] = system: Bacteria species as indicated in Table 1; test: MIC in Nutrient Broth No. 2 (over organisms of Table 1); type: cell-based; conditions: Table 1 organisms
Protocol: as §1, §2

Oc1cc(Cl)ccc1Oc1ccc(Cl)cc1Cl [Triclosan, 5-chloro-2-(2,4-dichlorophenoxy)phenol]
MIC [1]: 0.5 µg/mL (≈ 1.73 µM)
MIC (Ent. cloacae ATCC 13047): 0.5 µg/mL (≈ 1.73 µM)
MIC (E. hermanii ATCC 33650): 0.5 µg/mL (≈ 1.73 µM)
MIC [2]: 0.5 µg/mL (≈ 1.73 µM)
MIC [3]: 0.1 µg/mL (≈ 0.345 µM)
MIC [4]: 8 µg/mL (≈ 27.6 µM)
MIC [5]: 2 µg/mL (≈ 6.91 µM)
MIC [6]: 1 µg/mL (≈ 3.45 µM)
MIC [7]: 0.5 µg/mL (≈ 1.73 µM)
MIC [8]: 0.5 µg/mL (≈ 1.73 µM)
MIC [9]: 8 µg/mL (≈ 27.6 µM)
MIC [10]: 4 µg/mL (≈ 13.8 µM)
MIC (Escherichia coli): 0.1 to 0.5 µg/mL (≈ 0.345 to 1.73 µM)
MIC (Hafnia alvei ATCC 13337): 0.1 µg/mL (≈ 0.345 µM)
MIC [11]: 0.5 µg/mL (≈ 1.73 µM)
MIC (Proteus vulgaris OCC 195): 0.5 µg/mL (≈ 1.73 µM)
MIC [12]: 32 µg/mL (≈ 111 µM)
MIC (Salmonella): 0.5 to 1 µg/mL (≈ 1.73 to 3.45 µM)
MIC [13]: 64 µg/mL (≈ 221 µM)
MIC (Staph. aureus): 0.01 µg/mL (≈ 0.0345 µM)
MIC (Staph. epidermidis): 0.01 µg/mL (≈ 0.0345 µM)
MIC [14]: 0.01 µg/mL (≈ 0.0345 µM)
MIC [15]: 0.01 µg/mL (≈ 0.0345 µM)
MIC [16]: 4 µg/mL (≈ 13.8 µM)
MIC [17]: 1 µg/mL (≈ 3.45 µM)
MIC [18]: 1 µg/mL (≈ 3.45 µM)
MIC (Strep. viridans OCC 234): 4 µg/mL (≈ 13.8 µM)
susceptibility of the organisms that were tested [19]: inhibited
